Assay results published in patent US6800629B2, “Pyrazine derivatives or salts thereof, pharmaceutical composition containing the same, and production intermediates thereof” (priority 2000, dated 2004).

What was measured:
Assay type in all cases: cell-based
[1] = tested on: influenza virus (A/PR/8/34 strain); test: Anti-influenza virus activity, plaque inhibition in MDCK cells; settings: PR/8, MDCK; for inhibition at 10 µg/mL / inhibition at 100 µg/mL: 72 h, read-out: Inhibitory rate
[2] = tested on: Rotavirus (Ku strain); test: Anti-rotavirus activity, plaque inhibition in MA-104 cells; settings: 30 μg/mL of test compound, plaque count
[3] = tested on: RS virus (A-2 strain); test: Anti-RS virus (respiratory syncytial virus) activity, plaque inhibition in HEp-2 cells; settings: 30 μg/mL of test compound, plaque count

`NC(=O)c1nc(F)cnc1O` [6-fluoro-3-hydroxy-2-pyrazinecarboxamide] was tested, and the inhibition at 1 µg/mL ([1]; read-out: plaque inhibitory rate) was 100%.
`NC(=O)c1nccn([C@@H]2O[C@H](COC(=O)c3ccccc3)[C@@H](OC(=O)c3ccccc3)[C@H]2OC(=O)c2ccccc2)c1=O` [Example I-1, [(2R,3R,4R,5R)-5-[3-(aminocarbonyl)-2-oxo-1(2H)-pyrazinyl]-3,4-bis(benzoyloxy)tetrahydro-2-furanyl]methyl benzoate] was tested, and the anti-rotavirus activity [2] was “shows an anti-rotavirus activity”.
With `NC(=O)c1nccn([C@@H]2O[C@H](CO)[C@@H](O)[C@H]2O)c1=O` [Example I-2, 4-[(2R,3R,4S,5R)-3,4-dihydroxy-5-(hydroxymethyl)tetrahydro-2-furanyl]-3-oxo-3,4-dihydro-2-pyrazinecarboxamide] the inhibition at 10 µg/mL [1] was 95%.
`NC(=O)c1nccn(C2C[C@H](O)[C@@H](CO)O2)c1=O` (stereo partly drawn) [Example I-4, 4-[(4S,5R)-4-hydroxy-5-(hydroxymethyl)tetrahydro-2-furanyl]-3-oxo-3,4-dihydro-2-pyrazinecarboxamide] gave an inhibition at 100 µg/mL [1] of 80%.
`NC(=O)c1nc(F)cn([C@@H]2O[C@H](CO)[C@@H](O)[C@H]2O)c1=O` [Example I-6, 4-[(2R,3R,4S,5R)-3,4-dihydroxy-5-(hydroxymethyl)tetrahydro-2-furanyl]-6-fluoro-3-oxo-3,4-dihydro-2-pyrazinecarboxamide] gave an inhibition at 10 µg/mL [1] of 47%.
Work on `NC(=O)c1nc(Cl)cn([C@@H]2O[C@H](CO)[C@@H](O)[C@H]2O)c1=O` [Example I-7, 6-chloro-4-[(2R,3R,4S,5R)-3,4-dihydroxy-5-(hydroxymethyl)tetrahydro-2-furanyl]-3-oxo-3,4-dihydro-2-pyrazinecarboxamide] yielded an inhibition at 100 µg/mL [1] of 42%.
Work on `NC(=O)c1nccn(C2C=CC(CO)C2)c1=O` (stereo not drawn) [Example I-8, 4-[4-(hydroxymethyl)-2-cyclopenten-1-yl]-3-oxo-3,4-dihydro-2-pyrazinecarboxamide] yielded an inhibition at 100 µg/mL [1] of 42%.
With `NC(=O)c1nccn([C@@H]2CO[C@H](CO)[C@@H](O)C2)c1=O` [Example I-9, 4-[(3S,5S,6R)-5-hydroxy-6-(hydroxymethyl)tetrahydro-2H-pyran-3-yl]-3-oxo-3,4-dihydro-2-pyrazinecarboxamide] the inhibition at 100 µg/mL [1] was 31%.
`NC(=O)c1nccn([C@@H]2CO[C@H](CO)[C@@H](O)[C@H]2O)c1=O` [Example I-10, 4-[(3R,4S,5S,6R)-4,5-dihydroxy-6-(hydroxymethyl)tetrahydro-2H-pyran-3-yl]-3-oxo-3,4-dihydro-2-pyrazinecarboxamide] was tested, and the inhibition at 100 µg/mL [1] was 26%.
Work on `NC(=O)c1nccn([C@@H]2O[C@H](COP(=O)(O)O)[C@@H](O)[C@H]2O)c1=O` [Example I-12, {(2R,3S,4R,5R)-5-[3-(aminocarbonyl)-2-oxo-1(2H)-pyrazinyl]-3,4-dihydroxytetrahydro-2-furanyl}methyl dihydrogen phosphate] yielded an inhibition at 100 µg/mL [1] of 28%.
Work on `NC(=O)c1nccn([C@@H]2O[C@H](COP(=O)(OCc3ccccc3)OCc3ccccc3)[C@@H](O)[C@H]2O)c1=O` [Example I-13, {(2R,3S,4R,5R)-5-[3-(aminocarbonyl)-2-oxo-1(2H)-pyrazinyl]-3,4-dihydroxytetrahydro-2-furanyl}methyl dibenzyl phosphate] yielded an inhibition at 100 µg/mL [1] of 39%.
For `CC(=O)OC[C@H]1O[C@@H](n2ccnc(C(=N)N)c2=O)[C@H](OC(C)=O)[C@@H]1OC(C)=O` [Example I-14, (2R,3R,4R,5R)-4-(acetyloxy)-2-[(acetyloxy)methyl]-5-[3-[amino(imino)methyl]-2-oxo-1(2H)-pyrazinyl]tetrahydro-3-furanyl acetate], the anti-RS virus activity [3] was “shows an anti-RS virus activity”.
